Reference: US4812443A, “Methods for enhancing differentiation and proliferation of hematopoietic progenitor cells” (Kuraray Co., Ltd., priority 1984, dated 1989)
Entries after “also recorded” stand apart in the source; their conditions may differ.

How the values were obtained:
blood coagulation system = assay: Effect on the blood coagulation system in rats (Quick's one-step method); assay type: in vivo, rat (Wistar-strain); settings: 150, 300 and 600 mg/kg; two hours after administration; vs control
Excerpt: (§1) Since the dolichol is a water-insoluble oily liquid, it was used as a solution in sesame oil in the case of oral administration, and as a suspension in a nonionic surfactant (HCO-60, a trade name for a product of Nikko Chemical Co., Ltd.) in the case of intraperitoneal administration and in an in vitro test in the following experiment.
(§2) In the following experiment, ddY-strain male mice, Wistar-strain male rats (Shizuoka Laboratory Animal Center), Japanese white male rabbits (Carely) and Hartley-strain male guinea pigs (Clea Japan Inc.) were used. The animals were kept under conditions including a temperature of 23±1° C., a humidity of 55±10%, an illuminating time (7:00 am to 9.00 pm) and 15 ventilations per hour. The mice and rats were fed with solid feeds MF (a product of Oriental Yeast Co., Ltd.) and the guinea pigs and rabbits were fed with solid feeds GM-3 and RM-1 (Funabashi Farm Co.). They were allowed to take tap water freely. The animals were preliminarily kept for more than one week, and those which were healthy in general conditions were used in the experiments.
Wistar-strain male rats (180-210 g), 6 per group, were used. Two hours after administration of dolichol to rats, the blood was taken from the abdominal main vein of the rats, and the prothrombin time was measured by the Quick's one-step method.

corneal reflex = assay: Local anesthetic action in guinea pigs (corneal reflex); assay type: in vivo, guinea pig (Hartley-strain); settings: up to 0.1%, dropped into the eyes
Excerpt: as §1, §2
Hartley-strain male guinea pigs (370-440 g), 3 per group, were used. Dolichol was dropped in a concentration of 0.001%, 0.01% and 0.1%, respectively, into the eyes of the guinea pigs. […]

extracted atrium = assay: Peripheral action, extracted atrium of guinea pigs; set-up: species or system guinea pig (Hartley-strain); settings: 10^-6, 10^-5 and 10^-4 g/ml; 30° C.
Excerpt: as §1, §2
Hartley-strain male guinea pigs (350-400 g), 3 per group, were used. […] The contraction of the atria was recorded on an ink-writing oscillograph (EMP-3004, Nippon Photoelectric Co.) through an FD pick-up (TB-611T, Nippon Photoelectric Co.). […]

blood sugar = assay: Blood sugar lowering action in rats (glucose-oxidase method); assay type: in vivo, rat (Wistar-strain); settings: 150, 300 and 600 mg/kg; two hours after administration; vs control
Excerpt: as §1, §2
Wistar-strain male rats (180-210 g), 6 per group, were used. Two hours after administration of dolichol to the rats, the blood was taken from the abdominal main vein of the rats, and the blood sugar level was measured by the glucose-oxidase method.

extracted spermiduct = assay: Peripheral action, extracted spermiduct of rats; set-up: species or system rat (Wistar-strain); settings: up to 10^-4 g/ml, 32° C.
Excerpt: as §1, §2
Wistar-strain male rats (180 to 200 g), 3 per group, were used. The extracted spermiduct samples were suspended in Locke-Ringer solution at 32° C. The contraction of the spermiduct was recorded by the same method as in the preceding section. […]

[1] = system: reserpine-induced blepharoptosis; assay: Reserpine antagonistic action in mice; assay type: in vivo, mouse (ddY-strain); settings: 150, 300 and 600 mg/kg; reserpine 4 mg/kg i.p.; one hour after administration; vs control
Excerpt: as §1
as §2, with “The animals were preliminarily kept for more than one week, and those which were healthy in general conditions were used in the experiments.” left out
ddY-strain male mice (27-30 g), 6 per group, were used. […] One hour after the administration of dolichol, the degree of blepharoptosis in the mice was observed and recorded in accordance with the Rubin's standards of evaluation (0: normal opening of the eyes, 1: 1/4 blepharoptosis, 2: 1/2 blepharoptosis, 3: 3/4 blepharoptosis, 4: complete blepharoptosis).

acetic acid writhing = assay: Analgesic action in mice (acetic acid writhing method); assay type: in vivo, mouse (ddY-strain); settings: 150, 300 and 600 mg/kg; one hour before acetic acid; vs control
Excerpt: as §1, §2
ddY-strain male mice (27-30 g), 6 per group, were used. One hour after administration of dolichol to the mice, 0.6% acetic acid was intraperitoneally administered to the mice in a dose of 0.1 ml/10 g. […] The inhibitory action on acetic acid writhing was thus examined.

erythropoiesis = assay: Erythropoiesis in vivo, 59Fe incorporation in phenylhydrazine-induced anemic mice (Run 6); set-up: species or system mouse (BDF1-strain); settings: 250 mg/kg twice i.p.
Description: Phenylhydrazine was administered to normal mice and hereditarily anemic mice to induce severe hemolytic anemia. Then, the rate of erythropoiesis during recovering of anemia was determined by measuring the rate of radioactive iron (^59 Fe) incorporation into newly formed red blood cells [P. M. Cotes, D. R. Bangham, Nature (London), 191, 1067 (1961)]. The testing method and results are described below.
Phenylhydrazine hydrochloride (60 mg/kg) dissolved in normal saline solution was subcutaneously injected into BDF1 -strain mice (6 weeks old, female) three times, namely on the 1st, 2nd and 4th day of the experiment to produce phenylhydrazine-induced anemic mice. Dolichol in a dose of 250 mg/kg (25 mg of dolichol was emulsified in 1 ml of a 1% aqueous solution of sodium carboxymethyl cellulose; 0.2 ml/20 g of the body weight) was intraperitoneally administered to the mice twice, namely on the 1st and 2nd day. […] On the 6th day, 0.5 ml of the whole blood was taken from each mouse, and the radioactivity of ^59 Fe incorporated into the whole blood during the period of 48 hours was measured by an auto-gamma-counter. […] By assuming that the amount of the whole blood of each mouse was 7% of the body weight, the ^59 Fe incorporation rates were calculated in accordance with the following equation and averaged. […]

**Q.** Which Prothrombin time (blood coagulation system) does the source give for dolichol here?
**A.** tended to become longer; also recorded: no significant difference was noted

**Q.** What about the “Disappearance of corneal reflex” value (corneal reflex) of the same substance?
**A.** no disappearance of corneal reflex

**Q.** And the Local anesthetic action (corneal reflex)?
**A.** no local anesthetic action was observed

**Q.** What about the Chronotropic action (extracted atrium) of the same substance?
**A.** nor chronotropic action

**Q.** What about the Inotropic action (extracted atrium) of the same substance?
**A.** no inotropic

**Q.** What about the Blood sugar level (blood sugar) of the same substance?
**A.** no significant difference was noted

**Q.** What about the “Antagonistic action against noradrenalin” value (extracted spermiduct; extracted spermiduct) of the same substance?
**A.** nor any antagonistic action

**Q.** What about the “Direct action on extracted spermiduct” value (extracted spermiduct) of the same substance?
**A.** no direct action

**Q.** What about the “Antagonistic action against reserpine-induced blepharoptosis” value [1] of the same substance?
**A.** no antagonistic action

**Q.** What about the “Inhibitory action on acetic acid writhing” value (acetic acid writhing) of the same substance?
**A.** no significant difference was noted

**Q.** What about the “59Fe incorporation rate (%), dolichol administered group” value (erythropoiesis; 48 hours, control group 48.2) of the same substance?
**A.** 50.2%

**Q.** And the “Erythropoiesis enhancing ratio (%)” value (erythropoiesis; percent increase of 59Fe incorporation rate vs control)?
**A.** +4.2%
